Test results as given in ChEMBL document CHEMBL5034009, “Second-Generation Dual FXR/sEH Modulators with Optimized Pharmacokinetics” (J Med Chem, 2021).
Values after ≈ are worked out from the molar mass of the structure shown. Active and inactive are the calls of the source. No cut-off for these calls is given here.

How the values were obtained:
[1] = target: T1, Bifunctional epoxide hydrolase 2 (Homo sapiens, UniProt P34913); assay: Inhibition of recombinant human sEH using PHOME as substrate preincubated for 30 mins followed by substrate addition and measured after 30 mins by fluoresence-based assay
T1 sequence (P34913 whole entry): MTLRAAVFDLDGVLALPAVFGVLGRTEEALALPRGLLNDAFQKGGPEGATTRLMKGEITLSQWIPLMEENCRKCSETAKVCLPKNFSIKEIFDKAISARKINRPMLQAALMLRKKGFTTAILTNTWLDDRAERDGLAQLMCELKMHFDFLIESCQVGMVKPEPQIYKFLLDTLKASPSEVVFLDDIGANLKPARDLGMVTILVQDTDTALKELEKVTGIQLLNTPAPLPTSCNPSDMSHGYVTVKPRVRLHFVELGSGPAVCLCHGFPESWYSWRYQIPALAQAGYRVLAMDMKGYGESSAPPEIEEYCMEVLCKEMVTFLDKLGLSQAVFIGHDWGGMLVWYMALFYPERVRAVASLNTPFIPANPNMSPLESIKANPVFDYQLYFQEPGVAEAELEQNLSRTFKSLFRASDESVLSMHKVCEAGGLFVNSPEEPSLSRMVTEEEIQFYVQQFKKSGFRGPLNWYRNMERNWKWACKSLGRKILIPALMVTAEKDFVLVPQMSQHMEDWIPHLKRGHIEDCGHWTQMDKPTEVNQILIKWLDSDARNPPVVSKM

[2] = Metabolic stability in Sprague-Dawley rat liver microsomes assessed as intrinsic clearance at 10 uM preincubated with NADPH regenerating system for 5 mins followed by addition of microsome upto 60 mins by HPLC analysis; assay type: ADME; settings: read-out: CLH
Bile acid receptor [3] = target: T2, Bile acid receptor (Homo sapiens, UniProt Q96RI1)
T2 sequence (Q96RI1 whole entry): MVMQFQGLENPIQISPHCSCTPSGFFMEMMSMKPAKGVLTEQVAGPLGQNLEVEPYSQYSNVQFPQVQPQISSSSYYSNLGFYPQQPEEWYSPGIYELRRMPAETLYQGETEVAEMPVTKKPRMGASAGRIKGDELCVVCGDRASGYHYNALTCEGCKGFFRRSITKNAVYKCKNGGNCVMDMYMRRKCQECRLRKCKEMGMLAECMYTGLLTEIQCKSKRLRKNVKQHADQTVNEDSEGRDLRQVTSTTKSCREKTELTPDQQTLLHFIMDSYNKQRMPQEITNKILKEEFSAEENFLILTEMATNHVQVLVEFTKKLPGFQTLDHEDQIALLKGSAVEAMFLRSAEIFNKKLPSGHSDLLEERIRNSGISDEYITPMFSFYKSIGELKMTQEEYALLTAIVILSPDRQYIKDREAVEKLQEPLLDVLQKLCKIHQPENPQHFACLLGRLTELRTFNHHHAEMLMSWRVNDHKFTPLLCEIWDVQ
Description: (§1) Agonist activity at recombinant human full-length FXR expressed in HeLa cells co-expressing human RXRalpha after 24 hrs by Dual-Glo luciferase assay

[4] = Metabolic stability in Sprague-Dawley rat liver microsomes assessed as half life at 10 uM preincubated with NADPH regenerating system for 5 mins followed by addition of microsome upto 60 mins by HPLC analysis; assay type: ADME
[5] = target: T3, Bile acid receptor (Homo sapiens) (UniProt Q96RI1); assay: Agonist activity at recombinant human full-length FXR expressed in HeLa cells co-expressing human RXRalpha at 30 uM after 24 hrs by Dual-Glo luciferase assay; assay type: cell-based
T3 sequence (whole entry): T2 sequence (Q96RI1 whole entry)

Bile acid receptor [6] = target: T2, Bile acid receptor; settings: hela
Description: as §1

HepG2 [7] = assay: Cytotoxicity against human HepG2 cells assessed as cell viability at 100 uM by WST-1 assay; assay type: cell-based; settings: hepg2, 100 µM
[8] = Aqueous solubility of compound; assay type: physicochemical; settings: buffer
[9] = Cmax in CD-1 mouse plasma at 10 mg/kg, po administered as single dose by LC-MS analysis; assay type: ADME, organism-based; set-up: route oral, dose 10 mg/kg
[10] = Half life in CD-1 mouse plasma at 10 mg/kg, po administered as single dose by LC-MS analysis; assay type: ADME, organism-based
[11] = Tmax in CD-1 mouse plasma at 10 mg/kg, po administered as single dose by LC-MS analysis; assay type: ADME, organism-based
HepG2 [12] = assay: Effect on FXR regulated gene expression in human HepG2 cells assessed as induction of SREBP1c expression at 1 uM after 8 hrs by qRT-PCR analysis
HepG2 [13] = assay: Effect on FXR regulated gene expression in human HepG2 cells assessed as induction of PPARalpha expression at 1 uM after 8 hrs by qRT-PCR analysis

| Structure (SMILES) | IC50 [1] [nM] | microsomal CLint at 10 µM [2] [µL/min/mg] | EC50 (Bile acid receptor [3]) [nM] | half-life at 10 µM [4] [min] | also measured |
| --- | --- | --- | --- | --- | --- |
| CS(=O)(=O)Nc1ccc(CNC(=O)c2ccc(N3CCCCC3)cc2)c(Cl)c1 | 71 | 20 | 410 | 67 | – |
| CC(C)(C)c1ccc(C(=O)NCc2c(Cl)cc(NS(C)(=O)=O)cc2Cl)cc1 | 268 | 16 | – | 82 | Activity [5]: inactive |
| CS(=O)(=O)Nc1ccc(CNC(=O)c2ccc(C34CC(C3)C4)cc2)c(Cl)c1 | 49 | 17 | 560 | 81 | – |
| CC(C)(C)c1ccc(C(=O)NCc2ccc(N)cc2Cl)cc1 | – | – | 40 | – | – |
| CC(C)(C)c1ccc(C(=O)NCc2ccc(NS(=O)(=O)C(F)(F)F)cc2Cl)cc1 | 21 | 17 | – | 78 | Activity [5]: inactive |
| CC(C)(C)c1ccc(C(=O)NCc2c(F)cc(NS(C)(=O)=O)cc2F)cc1 | 85 | 9.3 | – | 145 | Activity [5]: inactive |
| CS(=O)(=O)Nc1ccc(CNC(=O)c2ccc(N3CCOCC3)cc2)c(Cl)c1 | 175 | 4.1 | 4400 | 343 | – |
| CS(=O)(=O)Nc1ccc(CNC(=O)c2ccc(C3(O)CC3)cc2)c(Cl)c1 | – | – | – | – | EC50 (Bile acid receptor [6]): Nd(Unstable) |
| CS(=O)(=O)Nc1ccc(CNC(=O)c2ccc(C3(C(F)(F)F)CC3)cc2)c(Cl)c1 | 4.3 | 7.5 | – | 182 | Activity (HepG2 [7]): Non-Toxic; solubility [8]: 2.9 µg/mL (≈ 6.49 µM) |
| CC(C)(C)c1ccc(C(=O)NCc2ccc(NS(=O)(=O)C3CC3)cc2Cl)cc1 | 7.8 | 41 | 1500 | 33 | – |
| CCS(=O)(=O)Nc1ccc(CNC(=O)c2ccc(C(C)(C)C)cc2)c(Cl)c1 | 6.1 | 28 | 500 | 47 | – |
| CS(=O)(=O)Nc1ccc(CNC(=O)c2ccc(C(F)(F)C(F)(F)F)cc2)c(Cl)c1 | 4 | 14 | 3220 | 96 | – |
| CC(C)S(=O)(=O)Nc1ccc(CNC(=O)c2ccc(C(C)(C)C)cc2)c(Cl)c1 | 11.2 | 23 | – | 59 | – |
| CC(C)(C)c1ccc(C(=O)NCc2ccc(NS(C)(=O)=O)cc2F)cc1 | 16 | 47 | – | 29 | Activity [5]: inactive |
| CS(=O)(=O)Nc1ccc(CNC(=O)c2ccc(N3CCCC3)cc2)c(Cl)c1 | – | 17 | – | 77 | – |
| CS(=O)(=O)Nc1ccc(CNC(=O)c2ccc(C3(O)COC3)cc2)c(Cl)c1 | 111 | 5.4 | – | 254 | Activity [5]: inactive |
| CS(=O)(=O)Nc1ccc(CNC(=O)c2ccc(S(F)(F)(F)(F)F)cc2)c(Cl)c1 | 10 | 9.8 | – | 138 | Activity [5]: inactive |

Second part, led by results:

| IC50 [1] [nM] | microsomal CLint at 10 µM [2] [µL/min/mg] | EC50 (Bile acid receptor [3]) [nM] | half-life at 10 µM [4] [min] | Structure (SMILES) | also measured |
| --- | --- | --- | --- | --- | --- |
| 13 | 22 | 4000 | 62 | CS(=O)(=O)Nc1ccc(CNC(=O)c2ccc(CC(F)(F)F)cc2)c(Cl)c1 | – |
| 31 | 12 | 2200 | 108 | CCOc1ccc(C(=O)NCc2ccc(NS(C)(=O)=O)cc2Cl)cc1 | – |
| 38 | 5 | – | 270 | COc1ccc(C(=O)NCc2ccc(NS(C)(=O)=O)cc2Cl)cc1 | Activity [5]: inactive |
| 12 | 12 | 400 | 111 | CC(C)Oc1ccc(C(=O)NCc2ccc(NS(C)(=O)=O)cc2Cl)cc1 | – |
| 7 | 9.6 | – | 146 | CS(=O)(=O)Nc1ccc(CNC(=O)c2ccc(C(F)(F)F)cc2)c(Cl)c1 | Cmax [9]: 4930 ng/mL; half-life [10]: 312 min; Activity (HepG2 [7]): Non-Toxic; Tmax [11]: 1 h; solubility [8]: 5.7 µg/mL (≈ 14 µM) |
| 9 | 24 | – | 55 | COC(C)(C)c1ccc(C(=O)NCc2ccc(NS(C)(=O)=O)cc2Cl)cc1 | Activity [5]: inactive |
| 22 | 9.1 | 1090 | 148 | CS(=O)(=O)Nc1ccc(CNC(=O)c2ccc(OC(F)(F)F)cc2)c(Cl)c1 | – |
| – | 21 | – | 65 | CC(C)(C)c1ccc(C(=O)NCc2ccc(NS(C)(=O)=O)cc2Cl)cc1 | – |
| 94 | 8.6 | 13000 | 157 | CS(=O)(=O)Nc1ccc(CNC(=O)c2ccc(N3CCC3)cc2)c(Cl)c1 | – |
| 2 | 9.6 | 1200 | 141 | CC(F)(F)c1ccc(C(=O)NCc2ccc(NS(C)(=O)=O)cc2Cl)cc1 | – |
| 170 | 1.5 | 32 | 1210 | CC(C)(O)c1ccc(C(=O)NCc2ccc(NS(C)(=O)=O)cc2Cl)cc1 | Activity (HepG2 [12]): inactive; Activity (HepG2 [7]): Non-Toxic; Activity (HepG2 [13]): inactive; solubility [8]: 48 µg/mL (≈ 121 µM) |
| – | 25 | – | 53 | CN(C)c1ccc(C(=O)NCc2ccc(NS(C)(=O)=O)cc2Cl)cc1 | – |
